Data taken from article PMC9250534, “Synthesis and direct assay of large macrocycle diversities by combinatorial late-stage modification at picomole scale” (Nature Communications, 2022).

Target: MDM2 (Homo sapiens, UniProt Q00987)
Experiment: MDM2 binding screen of Libraries 3 and 4: displacement of fluorescent probe F-M8 at 750 nM macrocycle
Conditions: Panel b, Library 3: 63 scaffolds combinatorially acylated with 15 carboxylic acids at 30 picomole scale; displacement of fluorescent peptide probe; macrocycle 750 nM
Method in brief: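 Competition with nutlin-3a was run using the fluorescein conjugate. Library members came from scaffolds reacted 6 h at room temperature with carboxylic acids (20 equiv.), HBTU and DABCO in DMSO. Quenching was overnight in Tris-Cl pH 7.4 buffer with 0.01% Tween20.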

MDM2, sequence (Q00987 whole entry): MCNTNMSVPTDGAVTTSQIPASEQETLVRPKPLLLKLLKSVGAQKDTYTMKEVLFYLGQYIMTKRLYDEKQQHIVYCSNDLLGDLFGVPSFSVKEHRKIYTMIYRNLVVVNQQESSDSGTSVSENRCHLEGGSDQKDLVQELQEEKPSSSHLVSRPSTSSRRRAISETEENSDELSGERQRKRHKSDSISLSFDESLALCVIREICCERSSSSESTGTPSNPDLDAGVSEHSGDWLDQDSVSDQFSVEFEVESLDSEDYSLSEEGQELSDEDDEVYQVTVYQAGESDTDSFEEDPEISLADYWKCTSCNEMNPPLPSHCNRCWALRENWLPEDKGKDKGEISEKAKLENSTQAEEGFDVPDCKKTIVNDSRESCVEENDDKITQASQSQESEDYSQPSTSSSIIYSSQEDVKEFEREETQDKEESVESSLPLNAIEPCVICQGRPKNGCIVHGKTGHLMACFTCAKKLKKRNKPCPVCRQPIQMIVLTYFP

Going from `Cn1cc(C[C@@H]2NC(=O)[C@H](CNC(=O)c3ccc(Cl)cc3)NC(=O)[C@@H]3CN(CCO3)C(=O)CCSSCCNC2=O)c2ccccc21` [X-Cop-Dap-Me-Trp + Acid 25] to `O=C(NCC1NC(=O)C2CN(CCO2)C(=O)CCSSCCNC(=O)C(Cc2c[nH]c3ccccc23)NC1=O)c1ccc(Cl)cc1` (stereo not drawn) [X-Cop-Dap-Trp + Acid 25], the “fraction of fluorescent probe displaced” value rises from 0.015 to 0.041.

Compared with `Cn1cc(C[C@@H]2NC(=O)[C@H](CNC(=O)C3COc4ccccc4O3)NC(=O)[C@@H]3CN(CCO3)C(=O)CCSSCCNC2=O)c2ccccc21` (stereo partly drawn) [X-Cop-Dap-Me-Trp + Acid 115], `O=C(NC[C@@H]1NC(=O)[C@@H]2CN(CCO2)C(=O)CCSSCCNC(=O)[C@H](Cc2c[nH]c3ccccc23)NC1=O)C1COc2ccccc2O1` (stereo partly drawn) [X-Cop-Dap-Trp + Acid 115] is lower in “fraction of fluorescent probe displaced” value: 0.015 for the first, -0.00533 for the second.

Compared with `CN1C(=O)[C@H](CNC(=O)c2ccc(Cl)s2)NC(=O)[C@@H]2CN(CCO2)C(=O)CCSSCCNC(=O)[C@@H]1Cc1c[nH]c2ccccc12` [X-Cop-Dap-NMe-Trp + Acid 14], `CN1C(=O)[C@H](CNC(=O)c2ccc(Cl)cc2)NC(=O)[C@@H]2CN(CCO2)C(=O)CCSSCCNC(=O)[C@@H]1Cc1c[nH]c2ccccc12` [X-Cop-Dap-NMe-Trp + Acid 25] is lower in “fraction of fluorescent probe displaced” value: 0.028 for the first, -0.00533 for the second.

Compared with `CN1C(=O)C(CNC(=O)C2CC2c2ccccc2)NC(=O)C2CN(CCO2)C(=O)CCSSCCNC(=O)C1Cc1c[nH]c2ccccc12` (stereo not drawn) [X-Cop-Dap-NMe-Trp + Acid 105], `CN1C(=O)C(CNC(=O)c2ccc3ccccc3c2)NC(=O)C2CN(CCO2)C(=O)CCSSCCNC(=O)C1Cc1c[nH]c2ccccc12` (stereo not drawn) [X-Cop-Dap-NMe-Trp + Acid 107] is lower in “fraction of fluorescent probe displaced” value: 0.018 for the first, 0.011 for the second.

First: O=C(NC[C@@H]1NC(=O)[C@@H]2CN(CCO2)C(=O)CCSSCCNC(=O)[C@H](Cc2c[nH]c3ccccc23)NC1=O)c1ccc2ccccc2c1 [X-Cop-Dap-Trp + Acid 107]
Second: O=C(/C=C/c1ccc2ccccc2c1)NC[C@@H]1NC(=O)[C@@H]2CN(CCO2)C(=O)CCSSCCNC(=O)[C@H](Cc2c[nH]c3ccccc23)NC1=O [X-Cop-Dap-Trp + Acid 112]
The “fraction of fluorescent probe displaced” value of the first is lower: 0.108 for the first, 0.168 for the second.

First: O=C(/C=C/c1ccc(OCc2ccccc2)cc1)NC[C@@H]1NC(=O)[C@@H]2CN(CCO2)C(=O)CCSSCCNC(=O)[C@H](Cc2c[nH]c3ccccc23)NC1=O [X-Cop-Dap-Trp + Acid 110]
Second: O=C(NC[C@@H]1NC(=O)[C@@H]2CN(CCO2)C(=O)CCSSCCNC(=O)[C@H](Cc2c[nH]c3ccccc23)NC1=O)c1cccc(Oc2ccccc2)c1 [X-Cop-Dap-Trp + Acid 111]
The “fraction of fluorescent probe displaced” value of the first is lower: -0.012 for the first, 0.048 for the second.

First: CC(Oc1cccc(Cl)c1)C(=O)NC[C@@H]1NC(=O)[C@@H]2CN(CCO2)C(=O)CCSSCCNC(=O)[C@H](Cc2c[nH]c3ccccc23)NC1=O (stereo partly drawn) [X-Cop-Dap-Trp + Acid 113]
Second: CC(Oc1cccc(Cl)c1)C(=O)NCCN1CC(=O)N[C@@H](Cc2cccc3ccccc23)C(=O)NCCSSCCC(=O)N2CCO[C@@H](C2)C1=O (some centres unmarked) [X-Cop-N-Aeg-1-NaI + Acid 113]
The “fraction of fluorescent probe displaced” value of the first is lower: -0.00533 for the first, 0.008 for the second.

First: O=C1CN(CCNC(=O)c2ccc(Cl)s2)C(=O)[C@@H]2CN(CCO2)C(=O)CCSSCCNC(=O)[C@H](Cc2cccc3ccccc23)N1 [X-Cop-N-Aeg-1-NaI + Acid 14]
Second: O=C1CN(CCNC(=O)c2ccc(Cl)s2)C(=O)C2CN(CCO2)C(=O)CCSSCCNC(=O)C(Cc2ccc3ccccc3c2)N1 (centres unmarked) [X-Cop-N-Aeg-2-Nal + Acid 14]
The “fraction of fluorescent probe displaced” value of the first is lower: -0.025 for the first, -0.019 for the second.

Going from `O=C1CN(CCNC(=O)c2ccc(Cl)cc2)C(=O)C2CN(CCO2)C(=O)CCSSCCNC(=O)C(Cc2cccc3ccccc23)N1` (centres unmarked) [X-Cop-N-Aeg-1-NaI + Acid 25] to `O=C(C=Cc1ccc(Cl)cc1)NCCN1CC(=O)NC(Cc2cccc3ccccc23)C(=O)NCCSSCCC(=O)N2CCOC(C2)C1=O` (centres unmarked) [X-Cop-N-Aeg-1-NaI + Acid 108], the “fraction of fluorescent probe displaced” value rises from 0.008 to 0.048.

Compared with `O=C(/C=C/c1ccc(OCc2ccccc2)cc1)NCCN1CC(=O)N[C@@H](Cc2cccc3ccccc23)C(=O)NCCSSCCC(=O)N2CCO[C@@H](C2)C1=O` [X-Cop-N-Aeg-1-NaI + Acid 110], `O=C1CN(CCNC(=O)c2cccc(Oc3ccccc3)c2)C(=O)[C@@H]2CN(CCO2)C(=O)CCSSCCNC(=O)[C@H](Cc2cccc3ccccc23)N1` [X-Cop-N-Aeg-1-NaI + Acid 111] is lower in “fraction of fluorescent probe displaced” value: 0.035 for the first, -0.00533 for the second.

First: O=C(CCS(=O)(=O)c1ccccc1)NCCN1CC(=O)NC(Cc2cccc3ccccc23)C(=O)NCCSSCCC(=O)N2CCOC(C2)C1=O (centres unmarked) [X-Cop-N-Aeg-1-NaI + Acid 114]
Second: Cn1cc(C[C@@H]2NC(=O)CN(CCNC(=O)c3ccc4ccccc4c3)C(=O)[C@@H]3CN(CCO3)C(=O)CCSSCCNC2=O)c2ccccc21 [X-Cop-N-Aeg-Me-Trp + Acid 107]
The “fraction of fluorescent probe displaced” value of the first is higher: 0.015 for the first, 0.00455 for the second.

Going from `O=C1CN(CCNC(=O)c2ccc(Cl)cc2)C(=O)[C@@H]2CN(CCO2)C(=O)CCSSCCNC(=O)[C@H](Cc2ccc3ccccc3c2)N1` [X-Cop-N-Aeg-2-Nal + Acid 25] to `O=C1CN(CCNC(=O)c2ccc3ccccc3c2)C(=O)[C@@H]2CN(CCO2)C(=O)CCSSCCNC(=O)[C@H](Cc2c[nH]c3cc(Cl)ccc23)N1` [X-Cop-N-Aeg-Cl-Trp + Acid 107], the “fraction of fluorescent probe displaced” value rises from 0.00133 to 0.00455.

Compared with `O=C1CN(CCNC(=O)C2CC2c2ccccc2)C(=O)C2CN(CCO2)C(=O)CCSSCCNC(=O)C(Cc2ccc3ccccc3c2)N1` (centres unmarked) [X-Cop-N-Aeg-2-Nal + Acid 105], `O=C(/C=C/c1ccc2ccccc2c1)NCCN1CC(=O)N[C@@H](Cc2ccc3ccccc3c2)C(=O)NCCSSCCC(=O)N2CCO[C@@H](C2)C1=O` [X-Cop-N-Aeg-2-Nal + Acid 112] is higher in “fraction of fluorescent probe displaced” value: -0.015 for the first, 0.035 for the second.

Compared with `O=C1CN(CCNC(=O)c2ccc(Cl)s2)C(=O)[C@@H]2CN(CCO2)C(=O)CCSSCCNC(=O)[C@H](Cc2c[nH]c3cc(Cl)ccc23)N1` [X-Cop-N-Aeg-Cl-Trp + Acid 14], `O=C1CN(CCNC(=O)c2ccc(Cl)s2)C(=O)[C@@H]2CN(CCO2)C(=O)CCSSCCNC(=O)[C@@H](Cc2c[nH]c3ccccc23)N1` [X-Cop-N-Aeg-D-Trp + Acid 14] is lower in “fraction of fluorescent probe displaced” value: -0.00533 for the first, -0.012 for the second.

Compared with `O=C1CN(CCNC(=O)C2COc3ccccc3O2)C(=O)[C@@H]2CN(CCO2)C(=O)CCSSCCNC(=O)[C@H](Cc2c[nH]c3cc(Cl)ccc23)N1` (some centres unmarked) [X-Cop-N-Aeg-Cl-Trp + Acid 115], `O=C1CN(CCNC(=O)C2COc3ccccc3O2)C(=O)[C@@H]2CN(CCO2)C(=O)CCSSCCNC(=O)[C@@H](Cc2c[nH]c3ccccc23)N1` (stereo partly drawn) [X-Cop-N-Aeg-D-Trp + Acid 115] is lower in “fraction of fluorescent probe displaced” value: 0.021 for the first, -0.00533 for the second.

Compared with `O=C(/C=C/c1ccc(Cl)cc1)NCCN1CC(=O)N[C@H](Cc2c[nH]c3ccccc23)C(=O)NCCSSCCC(=O)N2CCO[C@@H](C2)C1=O` [X-Cop-N-Aeg-D-Trp + Acid 108], `Cn1cc(C[C@@H]2NC(=O)CN(CCNC(=O)/C=C/c3ccc(Cl)cc3)C(=O)[C@@H]3CN(CCO3)C(=O)CCSSCCNC2=O)c2ccccc21` [X-Cop-N-Aeg-Me-Trp + Acid 108] is higher in “fraction of fluorescent probe displaced” value: 0.015 for the first, 0.021 for the second.

First: Cn1cc(C[C@@H]2NC(=O)CN(CCNC(=O)c3ccc(Cl)cc3)C(=O)[C@@H]3CN(CCO3)C(=O)CCSSCCNC2=O)c2ccccc21 [X-Cop-N-Aeg-Me-Trp + Acid 25]
Second: Cn1cc(C[C@@H]2NC(=O)CN(CCNC(=O)c3cccc(Oc4ccccc4)c3)C(=O)[C@@H]3CN(CCO3)C(=O)CCSSCCNC2=O)c2ccccc21 [X-Cop-N-Aeg-Me-Trp + Acid 111]
The “fraction of fluorescent probe displaced” value of the first is higher: 0.028 for the first, -0.00533 for the second.

In the case of `Cn1cc(C[C@@H]2NC(=O)CN(CCNC(=O)/C=C/c3ccc4ccccc4c3)C(=O)[C@@H]3CN(CCO3)C(=O)CCSSCCNC2=O)c2ccccc21` [X-Cop-N-Aeg-Me-Trp + Acid 112], the “fraction of fluorescent probe displaced” value is reported as 0.028.

Same assay, conditions: Panel c, Library 4: best nine scaffolds and 15 additional carboxylic acids; displacement of fluorescent probe

Going from `CCOc1ccc(C=CC(=O)NCC2NC(=O)C3CN(CCO3)C(=O)CCSSCCNC(=O)C(Cc3cn(C)c4ccccc34)NC2=O)cc1` (stereo not drawn) [X-Cop-Dap-Me-Trp + Acid 117] to `CCCOc1ccc(C=CC(=O)NCC2NC(=O)C3CN(CCO3)C(=O)CCSSCCNC(=O)C(Cc3cn(C)c4ccccc34)NC2=O)cc1` (stereo not drawn) [X-Cop-Dap-Me-Trp + Acid 118], the “fraction of fluorescent probe displaced” value falls from 0.052 to 0.028.

Going from `CC(=Cc1ccccc1)C(=O)NCC1NC(=O)C2CN(CCO2)C(=O)CCSSCCNC(=O)C(Cc2cn(C)c3ccccc23)NC1=O` (stereo not drawn) [X-Cop-Dap-Me-Trp + Acid 123] to `O=C(C=Cc1cccc(C(F)(F)F)c1)NCC1NC(=O)C2CN(CCO2)C(=O)CCSSCCNC(=O)C(Cc2c[nH]c3ccccc23)NC1=O` (stereo not drawn) [X-Cop-Dap-Trp + Acid 122], the “fraction of fluorescent probe displaced” value rises from -0.037 to 0.118.

Compared with `CCOc1ccc(C=CC(=O)NCC2NC(=O)C3CN(CCO3)C(=O)CCSSCCNC(=O)C(Cc3c[nH]c4ccccc34)NC2=O)cc1` (stereo not drawn) [X-Cop-Dap-Trp + Acid 117], `CCCOc1ccc(C=CC(=O)NCC2NC(=O)C3CN(CCO3)C(=O)CCSSCCNC(=O)C(Cc3c[nH]c4ccccc34)NC2=O)cc1` (stereo not drawn) [X-Cop-Dap-Trp + Acid 118] is lower in “fraction of fluorescent probe displaced” value: 0.199 for the first, 0.158 for the second.
